Where two headings read alike, the source gives them in different places.
Experiments:
5-HT1a = molecular target: T1, 5-HT1a (Homo sapiens, UniProt P08908); test: Radioligand binding, 5-HT1a ([3H]8-OH-DPAT); conditions: read-out: Binding affinity (Inhibition rate % at 10 μM) 5HT1a
T1 construct: purchased Euroscreen/BioSignal Packard Inc
T1 sequence (P08908 1-422): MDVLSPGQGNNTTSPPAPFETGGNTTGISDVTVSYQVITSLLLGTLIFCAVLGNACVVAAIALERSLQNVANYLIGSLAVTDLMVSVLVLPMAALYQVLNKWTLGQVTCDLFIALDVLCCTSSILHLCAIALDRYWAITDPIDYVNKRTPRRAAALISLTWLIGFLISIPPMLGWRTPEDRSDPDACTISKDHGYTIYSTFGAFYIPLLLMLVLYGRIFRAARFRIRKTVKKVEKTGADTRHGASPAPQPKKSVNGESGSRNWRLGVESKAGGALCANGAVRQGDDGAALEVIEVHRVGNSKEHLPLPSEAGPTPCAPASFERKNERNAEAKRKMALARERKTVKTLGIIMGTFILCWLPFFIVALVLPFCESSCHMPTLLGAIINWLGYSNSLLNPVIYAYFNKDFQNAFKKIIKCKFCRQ
Procedure: (§1) Radioligand bindings were performed according to the test method provided by the supplier of receptor membrane (Euroscreen/BioSignal Packard Inc.).

hD3 receptor = molecular target: T2, hD3 receptor (Homo sapiens, UniProt P35462); test: Radioligand binding, dopamine D3 ([3H]spiperone); conditions: read-out: Binding affinity (Inhibition rate % at 10 μM) D3
T2 construct: purchased BioSignal Packard Inc., Montreal, Canada
T2 sequence (P35462 whole entry): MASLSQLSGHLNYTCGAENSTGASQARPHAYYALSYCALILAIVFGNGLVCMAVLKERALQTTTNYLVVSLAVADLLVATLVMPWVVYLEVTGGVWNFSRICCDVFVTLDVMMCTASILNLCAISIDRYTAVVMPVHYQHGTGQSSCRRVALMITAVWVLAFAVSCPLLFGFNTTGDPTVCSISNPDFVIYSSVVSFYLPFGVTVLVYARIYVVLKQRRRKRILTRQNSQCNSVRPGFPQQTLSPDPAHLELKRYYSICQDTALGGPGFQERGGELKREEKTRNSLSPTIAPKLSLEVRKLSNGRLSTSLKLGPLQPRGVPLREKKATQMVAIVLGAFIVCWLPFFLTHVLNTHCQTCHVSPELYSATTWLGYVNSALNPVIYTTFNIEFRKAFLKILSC

5-HT2a = molecular target: T3, 5-HT2a (Homo sapiens, UniProt P28223); test: Radioligand binding, 5-HT2a ([3H]Ketanserin); conditions: read-out: Binding affinity (Inhibition rate % at 10 μM) 5HT2a
T3 construct: purchased Euroscreen/BioSignal Packard Inc
T3 sequence (P28223 whole entry): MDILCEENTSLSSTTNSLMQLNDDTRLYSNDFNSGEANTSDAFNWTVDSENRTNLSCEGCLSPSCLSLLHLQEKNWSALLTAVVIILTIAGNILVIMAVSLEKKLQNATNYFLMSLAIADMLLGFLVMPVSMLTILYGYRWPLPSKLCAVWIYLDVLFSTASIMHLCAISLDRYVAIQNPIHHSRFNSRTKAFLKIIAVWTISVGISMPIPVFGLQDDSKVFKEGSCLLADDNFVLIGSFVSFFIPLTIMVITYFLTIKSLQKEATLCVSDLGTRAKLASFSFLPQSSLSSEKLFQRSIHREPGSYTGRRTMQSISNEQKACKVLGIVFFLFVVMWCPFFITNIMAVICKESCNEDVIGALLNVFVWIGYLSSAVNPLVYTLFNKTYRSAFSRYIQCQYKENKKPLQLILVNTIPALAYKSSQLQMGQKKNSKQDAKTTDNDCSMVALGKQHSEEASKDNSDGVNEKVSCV
Procedure: as §1

5-HT2c = molecular target: T4, 5-HT2c (Homo sapiens, UniProt P28335); test: Radioligand binding, 5-HT2c ([3H]Mesulergine); conditions: read-out: Binding affinity (Inhibition rate % at 10 μM) 5HT2c
T4 construct: purchased Euroscreen/BioSignal Packard Inc
T4 sequence (P28335 33-458): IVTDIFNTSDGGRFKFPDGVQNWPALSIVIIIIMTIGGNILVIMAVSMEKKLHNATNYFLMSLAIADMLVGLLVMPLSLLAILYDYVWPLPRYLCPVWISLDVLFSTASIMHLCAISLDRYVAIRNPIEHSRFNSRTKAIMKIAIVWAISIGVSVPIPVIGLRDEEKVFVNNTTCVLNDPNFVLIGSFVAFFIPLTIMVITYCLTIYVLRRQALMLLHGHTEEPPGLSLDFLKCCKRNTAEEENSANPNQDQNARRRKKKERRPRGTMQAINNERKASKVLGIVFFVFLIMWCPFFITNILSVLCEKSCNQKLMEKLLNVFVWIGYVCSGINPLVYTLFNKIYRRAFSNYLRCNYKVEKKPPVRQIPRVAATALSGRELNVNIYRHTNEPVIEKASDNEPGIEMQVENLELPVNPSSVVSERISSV
Procedure: as §1

hD2L receptor = molecular target: T5, hD2L receptor (Homo sapiens, UniProt P14416); test: Radioligand binding, dopamine D2 ([3H]spiperone); conditions: read-out: Binding affinity (Inhibition rate % at 10 μM) D2
T5 construct: purchased BioSignal Packard Inc., Montreal, Canada
T5 sequence (P14416 whole entry): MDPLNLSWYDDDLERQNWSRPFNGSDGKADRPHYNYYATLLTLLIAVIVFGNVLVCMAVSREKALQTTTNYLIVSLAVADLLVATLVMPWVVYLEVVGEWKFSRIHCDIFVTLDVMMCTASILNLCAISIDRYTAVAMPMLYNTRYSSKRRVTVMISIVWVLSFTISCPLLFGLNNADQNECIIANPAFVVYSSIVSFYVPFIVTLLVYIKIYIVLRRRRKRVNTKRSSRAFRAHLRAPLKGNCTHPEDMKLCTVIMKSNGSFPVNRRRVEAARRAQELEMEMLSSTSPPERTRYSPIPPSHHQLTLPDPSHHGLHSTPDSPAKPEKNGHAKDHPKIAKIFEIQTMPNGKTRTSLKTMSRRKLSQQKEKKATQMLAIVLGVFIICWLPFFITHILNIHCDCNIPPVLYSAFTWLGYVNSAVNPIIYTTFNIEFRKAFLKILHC

5-HT7 = molecular target: T6, 5-HT7 (Homo sapiens, UniProt P34969); test: Radioligand binding, 5-HT7 ([3H]LSD); conditions: read-out: Binding affinity (Inhibition rate % at 10 μM) 5HT7
T6 construct: purchased Euroscreen/BioSignal Packard Inc
T6 sequence (P34969 whole entry): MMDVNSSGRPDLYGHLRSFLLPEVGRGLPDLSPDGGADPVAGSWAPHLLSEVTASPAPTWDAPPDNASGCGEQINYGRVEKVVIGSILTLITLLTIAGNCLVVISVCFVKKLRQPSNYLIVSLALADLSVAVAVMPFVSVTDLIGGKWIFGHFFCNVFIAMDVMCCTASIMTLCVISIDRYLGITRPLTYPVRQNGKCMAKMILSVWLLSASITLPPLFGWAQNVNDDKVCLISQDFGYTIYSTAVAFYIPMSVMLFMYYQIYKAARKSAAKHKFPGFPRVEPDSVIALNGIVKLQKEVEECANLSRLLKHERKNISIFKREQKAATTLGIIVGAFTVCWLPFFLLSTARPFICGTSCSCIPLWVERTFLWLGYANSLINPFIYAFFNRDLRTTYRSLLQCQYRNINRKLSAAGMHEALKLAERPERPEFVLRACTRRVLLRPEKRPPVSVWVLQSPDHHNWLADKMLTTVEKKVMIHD
Procedure: as §1

[1] = molecular target: T7, human serotonin 5-HT6 receptor (Homo sapiens, UniProt P50406); test: [3H]LSD binding at cloned 5-HT6 receptors; conditions: for inhibition at 10 µM: read-out: Binding affinity (Inhibition rate % at 10 μM) 5HT6; for 5-HT6 affinity compared with known selective antagonists: in words
T7 construct: made in house; host or cells: Sf21 insect cells (pBacPAK8 baculovirus vector)
T7 sequence (P50406 whole entry): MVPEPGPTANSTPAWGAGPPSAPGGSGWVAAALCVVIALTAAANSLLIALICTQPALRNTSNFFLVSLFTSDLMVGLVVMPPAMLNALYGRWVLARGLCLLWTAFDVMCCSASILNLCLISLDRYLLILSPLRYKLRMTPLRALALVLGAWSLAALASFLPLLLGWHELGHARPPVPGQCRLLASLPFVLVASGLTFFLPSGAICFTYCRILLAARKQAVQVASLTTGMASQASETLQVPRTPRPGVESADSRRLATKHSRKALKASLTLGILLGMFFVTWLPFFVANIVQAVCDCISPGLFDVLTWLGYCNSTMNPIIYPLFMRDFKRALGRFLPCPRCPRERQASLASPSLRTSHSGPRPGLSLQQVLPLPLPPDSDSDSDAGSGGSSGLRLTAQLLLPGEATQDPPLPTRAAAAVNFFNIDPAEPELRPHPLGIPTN

D1 = D1 (Homo sapiens, UniProt P21728); test: Radioligand binding for selectivity, D1; conditions: read-out: Binding affinity (Inhibition rate % at 10 μM) D1
Sequence of D1 (P21728 whole entry): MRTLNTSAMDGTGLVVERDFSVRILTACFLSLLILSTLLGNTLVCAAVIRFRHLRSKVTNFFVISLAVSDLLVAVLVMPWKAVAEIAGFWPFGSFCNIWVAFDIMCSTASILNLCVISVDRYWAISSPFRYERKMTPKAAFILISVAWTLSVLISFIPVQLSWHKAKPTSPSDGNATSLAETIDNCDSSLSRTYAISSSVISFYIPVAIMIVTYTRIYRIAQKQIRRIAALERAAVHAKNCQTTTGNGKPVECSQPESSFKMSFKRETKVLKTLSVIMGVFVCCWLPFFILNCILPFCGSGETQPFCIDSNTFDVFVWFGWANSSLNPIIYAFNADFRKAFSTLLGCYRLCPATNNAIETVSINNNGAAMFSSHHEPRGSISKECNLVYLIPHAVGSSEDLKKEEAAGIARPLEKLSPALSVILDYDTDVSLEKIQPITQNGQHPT

hD4.2 receptor = molecular target: T8, hD4.2 receptor (Homo sapiens, UniProt P21917, DEL265-296); test: Radioligand binding, dopamine D4 ([3H]YM-09151-2); conditions: read-out: Binding affinity (Inhibition rate % at 10 μM) D4
T8 construct: purchased BioSignal Packard Inc., Montreal, Canada
T8 sequence (P21917 with tags, fused parts or gaps DEL265-296): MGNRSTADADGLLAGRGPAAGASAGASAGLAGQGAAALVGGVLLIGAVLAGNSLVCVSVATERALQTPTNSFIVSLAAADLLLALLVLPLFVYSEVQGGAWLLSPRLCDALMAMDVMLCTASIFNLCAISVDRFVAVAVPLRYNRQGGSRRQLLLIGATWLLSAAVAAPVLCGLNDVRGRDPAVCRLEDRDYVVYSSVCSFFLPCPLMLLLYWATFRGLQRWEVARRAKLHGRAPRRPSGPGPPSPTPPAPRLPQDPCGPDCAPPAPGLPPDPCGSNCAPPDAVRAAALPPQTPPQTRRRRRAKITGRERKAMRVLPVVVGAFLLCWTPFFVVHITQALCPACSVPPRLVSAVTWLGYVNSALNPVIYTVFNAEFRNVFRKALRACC

[2] = [3H]LSD 1.87 nM, cloned receptor membranes, 37° C., 60 min, read-out: IC50

Row | Compound | inhibition at 10 µM (5-HT1a) [%] | inhibition at 10 µM (hD3 receptor) [%] | inhibition at 10 µM (5-HT2a) [%] | inhibition at 10 µM (5-HT2c) [%] | inhibition at 10 µM (hD2L receptor) [%] | inhibition at 10 µM (5-HT7) [%] | IC50 [1, 2] [nM] | inhibition at 10 µM [1] [%] | inhibition at 10 µM (D1) [%] | melting point [°C] | inhibition at 10 µM (hD4.2 receptor) [%] | IC50 [1] [nM] | 5-HT6 affinity compared with known selective antagonists [1]
1 | COc1cc(Cl)cc2c1C(=O)C(C)(c1ccccc1)C(=O)N2 (stereo not shown) [Example 6, 7-chloro-5-methoxy-3-methyl-3-phenyl-1H-quinoline-2,4-dione] | 65.8 | 23 | 10.6 | 13.5 | 29.7 | 19.5 | 428 | 68.3 | 31.1 | 267 to 269 | 1.6 |  | 
2 | COc1cc(C2(C)C(=O)Nc3ccccc3C2=O)ccc1O (stereo not shown) [Example 31, 3-(4-hydroxy-3-methoxy-phenyl)-3-methyl-1H-quinoline-2,4-dione] | 31.2 | 9.8 | 43.5 | 10.2 | 9.2 | 16.4 | 801 | 70.6 | 37.1 | 168 to 169 | 0 |  | 
3 | C[C@H](NC(=O)Oc1ccc(C2(C)C(=O)Nc3cc(Cl)cc(Cl)c3C2=O)cc1)c1ccccc1 (stereo partly shown) [Example 25] | 35.9 | 10.2 | 16.7 | 4 | 8.4 | 30.6 |  | 69.8 | 54.1 | 110 to 115 | 0 | 816 | 
4 | CN(C)c1ccc(C2(C)C(=O)Nc3cc(Cl)cc(Cl)c3C2=O)cc1 (stereo not shown) [Example 40, 5,7-dichloro-3-(4-dimethylamino-phenyl)-3-methyl-1H-quinoline-2,4-dione] | 50.2 | 4.5 | 42.2 | 6.5 | 10.5 | 30.3 | 563 | 67.2 | 40.8 | 268 to 269 | 0 |  | 
5 | CC1(c2ccccc2)C(=O)Nc2cc(Br)cc(Br)c2C1=O (stereo not shown) [Example 4, 5,7-dibromo-3-methyl-3-phenyl-1H-quinoline-2,4-dione] | 11.7 | 15.8 | 13.6 | 29.8 | 3 | 13 | 320 | 70.9 | 23.7 | 202 to 203 | 0 |  | 
6 | COc1ccc(C2(C)C(=O)Nc3cc(N4CCN(C)CC4)cc(Cl)c3C2=O)cc1 (stereo not shown) [Example 46, 5-chloro-3-(4-methoxy-phenyl)-3-methyl-7-(4-methyl-piperazine-1-yl)-1H-quinoline-2,4-dione] | 25.4 | 16.7 | 16.5 | 10.7 | 30.4 | 17.8 | 1460 | 67.1 | 16 | 201 to 202 | 7.2 |  | 
7 | CC1(c2ccc(O)c([N+](=O)[O-])c2)C(=O)Nc2cc(Cl)cc(Cl)c2C1=O (stereo not shown) [Example 22, 5,7-dichloro-3-(4-hydroxy-3-nitro-phenyl)-3-methyl-1H-quinoline-2,4-dione] | 68.7 | 34 | 50.9 | 2.5 | 11.2 | 36.3 | 1010 | 72.5 | 35.7 | 239 to 240 | 0 |  | 
8 | CC1(c2ccc(O)c(Br)c2)C(=O)Nc2cc(Cl)cc(Cl)c2C1=O (stereo not shown) [Example 24, 3-(3-bromo-4-hydroxy-phenyl)-5,7-dichloro-3-methyl-1H-quinoline-2,4-dione] | 50.4 | 16.6 | 11.5 | 22.8 | 5 | 5.5 | 126 | 71 | 13 | 228 to 229 | 0 |  | 
9 | COc1cc(Cl)c2c(c1)NC(=O)C(C)(c1ccc(Br)cc1)C2=O (stereo not shown) [Example 52, 3-(4-bromo-phenyl)-5-chloro-7-methoxy-3-methyl-1H-quinoline-2,4-dione] | 7.8 | 7.4 | 30.6 | 20 | 9.3 | 8.8 | 73 | 89.6 | 41.5 | 239 to 240 | 0 |  | almost same affinities as or better affinities than known selective antagonists
10 | CCN(CC)c1ccc(C2(C)C(=O)Nc3cc(Cl)cc(Cl)c3C2=O)cc1 (stereo not shown) [Example 42, 5,7-dichloro-3-(4-diethylamino-phenyl)-3-methyl-1H-quinoline-2,4-dione] | 6.5 | 25.3 | 16.9 | 13.7 | 15.7 | 10.1 | 15 | 69.5 | 38.7 | 247 to 249 | 8.5 |  | almost same affinities as or better affinities than known selective antagonists
